Read-outs that look alike come from different tables or passages of the source.
What was measured:
apelin receptor (APJ) = molecular target: T1, apelin receptor (APJ) (Homo sapiens, UniProt P35414); assay: in vitro apelin agonist activity (methods of Giddings et al., Apelin-13 as positive control); format: cell-based
T1 sequence (P35414 1-380): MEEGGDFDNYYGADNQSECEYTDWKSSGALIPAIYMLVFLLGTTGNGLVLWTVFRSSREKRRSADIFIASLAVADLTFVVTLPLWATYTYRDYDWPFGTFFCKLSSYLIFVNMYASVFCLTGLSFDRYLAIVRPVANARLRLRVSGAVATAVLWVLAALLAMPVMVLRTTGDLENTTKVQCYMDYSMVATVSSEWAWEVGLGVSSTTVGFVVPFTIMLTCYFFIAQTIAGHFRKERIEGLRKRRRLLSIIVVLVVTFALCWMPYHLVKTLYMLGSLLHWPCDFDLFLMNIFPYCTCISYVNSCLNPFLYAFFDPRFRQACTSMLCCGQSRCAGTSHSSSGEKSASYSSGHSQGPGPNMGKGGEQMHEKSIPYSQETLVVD
Description: The compounds above were studied for their in vitro activity as apelin agonists using the methods described by Giddings et al. Giddings et al., 2010 Int J High Thro Screen. 1:39-47, the contents of which are hereby incorporated by reference in its entirety.

C57BL/6 mice = assay: in vivo blood pressure lowering activity, non-invasive blood pressure and heart rate after IP injection; parameters: Systolic Baseline / Diastolic Baseline: unit not given here; conditions: for Diastolic Baseline / HR Baseline / Mean pressure Baseline / Systolic Baseline: baseline before dosing; for Diastolic % change / HR % change / Mean pressure % change / Systolic % change: postdose vs baseline; for HR Postdose: in bpm (unit assumed); for Diastolic Postdose / Mean pressure Postdose / Systolic Postdose: in mmHg (unit assumed)
Procedure: The compounds were also assayed for blood pressure activity using C57BL/6 mice and the procedure described by Tatemoto et al. The novel peptide apelin lowers blood pressure via a nitric oxide-dependent mechanism. Regul Pept. 2001; 99: 87-92. […] Studies have been published citing reductions in blood pressure occur following peptide apelin administration. Apelin-13 was used as a positive control. Knockout C57BL/6 mice lacking APJ have cardiovascular deficiencies. […] Charo et al. Am J Physiol Heart Circ Physiol. 2009 November 297(5):[…] et al. J Physiol Biochem. 2007 December; 63(4):359-73. Blood pressure measurements in these species of mice have been reported in the literature. […] et al. Am J Physiol Heart Circ Physiol. 2003 February; 284(2):[…]-74. On the first day of the study, 11 animals were treated with apelin-13, 11 with vehicle alone, and 11 as sham controls. The two later groups were used to determine effects (if any) of the vehicle or injection alone on blood pressure (BP). The experiment was conducted as follows: The animals were restrained and a baseline measurement taken for 5 min. Animals were injected and immediately monitored for 15 minutes. The effect of test agents should be apparent within this time. Tatemoto et al. reported that the effects of Apelin-13 were apparent within minutes. Tatemoto et al. 2001 Immediately following dosing, blood pressure (diastolic, systolic and mean pressure) and heart rate for each animal was recorded for up to 15 minutes using a Kent Scientific CODA Non-Invasive Blood Pressure System. […] On day 2-5 a similar protocol was used in increasing doses. The animals were randomized daily in three groups of 11 to receive either of the two experimental compounds by IP injection. […] At the end of the 5-day dosing period, all animals were humanely euthanized. [table]

[1] = apelin agonist activity, Giddings et al. method, read-out: agonist activity (EC50)

CCCCNC(=O)C[C@H](CC(C)C)NC(=O)c1cc(-c2c(OC)cccc2OC)n(CC(C)C)n1 [compound 143, (S)-N-(1-(Butylamino)-5-methyl-1-oxohexan-3-yl)-5-(2,6-dimethoxyphenyl)-1-isobutyl-1H-pyrazole-3-carboxamide]
EC50 (apelin receptor (APJ); [1]): < 10 µM
Diastolic Baseline (C57BL/6 mice; Day 2, 1 mg/kg IP): 127
HR Baseline (C57BL/6 mice; Day 2, 1 mg/kg IP): 706
Mean pressure Baseline (C57BL/6 mice; Day 2, 1 mg/kg IP): 138
Systolic Baseline (C57BL/6 mice; Day 2, 1 mg/kg IP): 161
Diastolic % change (C57BL/6 mice; Day 2, 1 mg/kg IP): 1%
HR % change (C57BL/6 mice; Day 2, 1 mg/kg IP): 3%
Mean pressure % change (C57BL/6 mice; Day 2, 1 mg/kg IP): 0%
Systolic % change (C57BL/6 mice; Day 2, 1 mg/kg IP): −1%
HR Postdose (C57BL/6 mice; Day 2, 1 mg/kg IP): 727
Diastolic Postdose (C57BL/6 mice; Day 2, 1 mg/kg IP): 129
Mean pressure Postdose (C57BL/6 mice; Day 2, 1 mg/kg IP): 139
Systolic Postdose (C57BL/6 mice; Day 2, 1 mg/kg IP): 160
Diastolic Baseline (C57BL/6 mice; Day 3, 3 mg/kg IP): 132
HR Baseline (C57BL/6 mice; Day 3, 3 mg/kg IP): 665
Mean pressure Baseline (C57BL/6 mice; Day 3, 3 mg/kg IP): 142
Systolic Baseline (C57BL/6 mice; Day 3, 3 mg/kg IP): 163
Diastolic % change (C57BL/6 mice; Day 3, 3 mg/kg IP): −4%
HR % change (C57BL/6 mice; Day 3, 3 mg/kg IP): 15%
Mean pressure % change (C57BL/6 mice; Day 3, 3 mg/kg IP): −4%
Systolic % change (C57BL/6 mice; Day 3, 3 mg/kg IP): −3%
HR Postdose (C57BL/6 mice; Day 3, 3 mg/kg IP): 763
Diastolic Postdose (C57BL/6 mice; Day 3, 3 mg/kg IP): 127
Mean pressure Postdose (C57BL/6 mice; Day 3, 3 mg/kg IP): 137
Systolic Postdose (C57BL/6 mice; Day 3, 3 mg/kg IP): 158
Diastolic Baseline (C57BL/6 mice; Day 4, 10 mg/Kg IP): 131.3
HR Baseline (C57BL/6 mice; Day 4, 10 mg/Kg IP): 669.3
Mean pressure Baseline (C57BL/6 mice; Day 4, 10 mg/Kg IP): 143
Systolic Baseline (C57BL/6 mice; Day 4, 10 mg/Kg IP): 167.5
Diastolic % change (C57BL/6 mice; Day 4, 10 mg/Kg IP): −5%
HR % change (C57BL/6 mice; Day 4, 10 mg/Kg IP): 11%
Mean pressure % change (C57BL/6 mice; Day 4, 10 mg/Kg IP): −6%
Systolic % change (C57BL/6 mice; Day 4, 10 mg/Kg IP): −6%
HR Postdose (C57BL/6 mice; Day 4, 10 mg/Kg IP): 745
Diastolic Postdose (C57BL/6 mice; Day 4, 10 mg/Kg IP): 124.2
Mean pressure Postdose (C57BL/6 mice; Day 4, 10 mg/Kg IP): 134.8
Systolic Postdose (C57BL/6 mice; Day 4, 10 mg/Kg IP): 157.1
Diastolic Baseline (C57BL/6 mice; Day 5, 30 mg/Kg IP): 130
HR Baseline (C57BL/6 mice; Day 5, 30 mg/Kg IP): 733.9
Mean pressure Baseline (C57BL/6 mice; Day 5, 30 mg/Kg IP): 141
Systolic Baseline (C57BL/6 mice; Day 5, 30 mg/Kg IP): 164.1
Diastolic % change (C57BL/6 mice; Day 5, 30 mg/Kg IP): −9%
HR % change (C57BL/6 mice; Day 5, 30 mg/Kg IP): −2%
Mean pressure % change (C57BL/6 mice; Day 5, 30 mg/Kg IP): −9%
Systolic % change (C57BL/6 mice; Day 5, 30 mg/Kg IP): −8%
HR Postdose (C57BL/6 mice; Day 5, 30 mg/Kg IP): 722.8
Diastolic Postdose (C57BL/6 mice; Day 5, 30 mg/Kg IP): 118.8
Mean pressure Postdose (C57BL/6 mice; Day 5, 30 mg/Kg IP): 128.9
Systolic Postdose (C57BL/6 mice; Day 5, 30 mg/Kg IP): 150.2

COc1cccc(OC)c1-c1cc(C(=O)N[C@H](CC(=O)NC2CCC2)CC(C)C)nn1CC(C)C [compound 173]
EC50 (apelin receptor (APJ); [1]): < 10 µM
Diastolic Baseline (C57BL/6 mice; Day 2, 1 mg/kg IP): 114
HR Baseline (C57BL/6 mice; Day 2, 1 mg/kg IP): 681
Mean pressure Baseline (C57BL/6 mice; Day 2, 1 mg/kg IP): 126
Systolic Baseline (C57BL/6 mice; Day 2, 1 mg/kg IP): 151
Diastolic % change (C57BL/6 mice; Day 2, 1 mg/kg IP): 3%
HR % change (C57BL/6 mice; Day 2, 1 mg/kg IP): 5%
Mean pressure % change (C57BL/6 mice; Day 2, 1 mg/kg IP): 1%
Systolic % change (C57BL/6 mice; Day 2, 1 mg/kg IP): −1%
HR Postdose (C57BL/6 mice; Day 2, 1 mg/kg IP): 716
Diastolic Postdose (C57BL/6 mice; Day 2, 1 mg/kg IP): 118
Mean pressure Postdose (C57BL/6 mice; Day 2, 1 mg/kg IP): 128
Systolic Postdose (C57BL/6 mice; Day 2, 1 mg/kg IP): 149
Diastolic Baseline (C57BL/6 mice; Day 3, 3 mg/kg IP): 127
HR Baseline (C57BL/6 mice; Day 3, 3 mg/kg IP): 661
Mean pressure Baseline (C57BL/6 mice; Day 3, 3 mg/kg IP): 136
Systolic Baseline (C57BL/6 mice; Day 3, 3 mg/kg IP): 156
Diastolic % change (C57BL/6 mice; Day 3, 3 mg/kg IP): 2%
HR % change (C57BL/6 mice; Day 3, 3 mg/kg IP): 12%
Mean pressure % change (C57BL/6 mice; Day 3, 3 mg/kg IP): 2%
Systolic % change (C57BL/6 mice; Day 3, 3 mg/kg IP): 2%
HR Postdose (C57BL/6 mice; Day 3, 3 mg/kg IP): 738
Diastolic Postdose (C57BL/6 mice; Day 3, 3 mg/kg IP): 129
Mean pressure Postdose (C57BL/6 mice; Day 3, 3 mg/kg IP): 139
Systolic Postdose (C57BL/6 mice; Day 3, 3 mg/kg IP): 159
Diastolic Baseline (C57BL/6 mice; Day 4, 10 mg/Kg IP): 114.9
HR Baseline (C57BL/6 mice; Day 4, 10 mg/Kg IP): 682.5
Mean pressure Baseline (C57BL/6 mice; Day 4, 10 mg/Kg IP): 126.3
Systolic Baseline (C57BL/6 mice; Day 4, 10 mg/Kg IP): 150.5
Diastolic % change (C57BL/6 mice; Day 4, 10 mg/Kg IP): 4%
HR % change (C57BL/6 mice; Day 4, 10 mg/Kg IP): 10%
Mean pressure % change (C57BL/6 mice; Day 4, 10 mg/Kg IP): 2%
Systolic % change (C57BL/6 mice; Day 4, 10 mg/Kg IP): 0%
HR Postdose (C57BL/6 mice; Day 4, 10 mg/Kg IP): 749.4
Diastolic Postdose (C57BL/6 mice; Day 4, 10 mg/Kg IP): 119.3
Mean pressure Postdose (C57BL/6 mice; Day 4, 10 mg/Kg IP): 129.2
Systolic Postdose (C57BL/6 mice; Day 4, 10 mg/Kg IP): 150
Diastolic Baseline (C57BL/6 mice; Day 5, 30 mg/Kg IP): 122.2
HR Baseline (C57BL/6 mice; Day 5, 30 mg/Kg IP): 701.1
Mean pressure Baseline (C57BL/6 mice; Day 5, 30 mg/Kg IP): 133
Systolic Baseline (C57BL/6 mice; Day 5, 30 mg/Kg IP): 155.7
Diastolic % change (C57BL/6 mice; Day 5, 30 mg/Kg IP): −4%
HR % change (C57BL/6 mice; Day 5, 30 mg/Kg IP): 3%
Mean pressure % change (C57BL/6 mice; Day 5, 30 mg/Kg IP): −4%
Systolic % change (C57BL/6 mice; Day 5, 30 mg/Kg IP): −5%
HR Postdose (C57BL/6 mice; Day 5, 30 mg/Kg IP): 721.7
Diastolic Postdose (C57BL/6 mice; Day 5, 30 mg/Kg IP): 117.5
Mean pressure Postdose (C57BL/6 mice; Day 5, 30 mg/Kg IP): 127.4
Systolic Postdose (C57BL/6 mice; Day 5, 30 mg/Kg IP): 148.2

COC(=O)CNC(=O)[C@H](CC(C)C)NC(=O)c1cc(-c2c(OC)cccc2OC)n(CC(C)C)n1 [compound 188]
EC50 (apelin receptor (APJ); [1]): < 10 µM

COC(=O)CNC(=O)[C@H](CC(C)C)NC(=O)c1cc(-c2c(OC)cccc2OC)n(C2CCCCC2)n1 [compound 189]
EC50 (apelin receptor (APJ); [1]): < 10 µM

CCOC(=O)CCNC(=O)[C@H](CC(C)C)NC(=O)c1cc(-c2c(OC)cccc2OC)n(CC(C)C)n1 [compound 191]
EC50 (apelin receptor (APJ); [1]): < 10 µM

COC(=O)CNC(=O)[C@H](CC1CCCCC1)NC(=O)c1cc(-c2c(OC)cccc2OC)n(CC(C)C)n1 [compound 198]
EC50 (apelin receptor (APJ); [1]): < 10 µM
EC50 (apelin receptor (APJ); mean based on three runs, read-out: mean activity (EC50)): 0.053 µM

COc1cccc(OC)c1-c1cc(C(=O)N[C@@H](CC2CCCCC2)C(=O)O)nn1CC(C)C [compound 204]
EC50 (apelin receptor (APJ)): < 10 µM

COC(=O)CNC(=O)[C@H](Cc1ccccc1)NC(=O)c1cc(-c2c(OC)cccc2OC)n(CC(C)C)n1 [compound 205]
EC50 (apelin receptor (APJ); [1]): < 10 µM

CCCC[C@H](NC(=O)c1cc(-c2c(OC)cccc2OC)n(CC(C)C)n1)C(=O)NCC(=O)OC [compound 212]
EC50 (apelin receptor (APJ); [1]): < 10 µM

COC(=O)CNC(=O)[C@H](CC1CCCCC1)NC(=O)c1cc(-c2cc(OC)ccc2OC)n(CC(C)C)n1 [compound 217]
EC50 (apelin receptor (APJ); [1]): < 10 µM

COC(=O)CN(C)C(=O)C[C@H](CC(C)C)NC(=O)c1cc(-c2c(OC)cccc2OC)n(CC(C)C)n1 [compound 218]
EC50 (apelin receptor (APJ); [1]): < 10 µM

COC(=O)CN(C)C(=O)[C@H](CC(C)C)NC(=O)c1cc(-c2c(OC)cccc2OC)n(CC(C)C)n1 [compound 219]
EC50 (apelin receptor (APJ); [1]): < 10 µM

From patent US10377718B2, “Apelin receptor (APJ) agonists and uses thereof” (Research Triangle Institute, priority 2014, dated 2019)
